Results filed as inconclusive are left out.
Tested on: Drosophila SCA1 polyglutamine model, toxicity suppression
Assay: Drosophila SCA1 whole organism dose response for polyglutamine toxicity reduction (AID 1595)

Row | Structure (SMILES) | EC50
1 | C=C1C2CC[C@H]3[C@]4(C)C[C@H](OC5OC(CO)C(OS(=O)(=O)O)C(OS(=O)(=O)O)C5OC(=O)CC(C)C)C[C@@H](C(=O)O)[C@H]4CC[C@]3(C2)[C@H]1O (some centres undefined) | 0.225 µM
2 | CN1CCOC(c2ccccc2)c2ccccc2C1 (centres undefined) | 0.05 µM
3 | CC(N)CCCC(C)(C)O (centres undefined) | 0.05 µM
4 | N#C/C(=C\c1ccc(O)cc1)C(=O)O | 0.05 µM
5 | CC(=O)OCC(=O)[C@H]1CCC2C3CCC4=CC(=O)CC[C@]4(C)C3CC[C@@]21C (some centres undefined) | 3 µM
6 | C[C@@H]1CC2C3CCC4=CC(=O)C=C[C@]4(C)[C@@]3(F)[C@@H](O)C[C@]2(C)[C@@]1(O)C(=O)COP(=O)(O)O (some centres undefined) | 0.75 µM
7 | NC(Cc1cc(I)c(Oc2ccc(O)c(I)c2)c(I)c1)C(=O)O (centres undefined) | 5 µM
8 | Cc1cc(C(C)(C)C)cc(C)c1CC1=NCCN1 | 0.25 µM
9 | NS(=O)(=O)c1cc(C2(O)NC(=O)c3ccccc32)ccc1Cl (centres undefined) | 5 µM
10 | C[N+](C)(C)CCOC(N)=O | 3 µM
11 | C[N+](C)(C)CC(=O)[O-] | 3 µM
12 | C[C@@H]1O[C@@H](O[C@H]2[C@H](Oc3cc(O)c4c(c3)O[C@H](c3ccc(O)cc3)CC4=O)O[C@H](CO)[C@@H](O)[C@@H]2O)[C@H](O)[C@H](O)[C@H]1O | 5 µM
13 | CCCCCCCCCCCCCCCC(=O)OC/C=C(C)/C=C/C=C(C)/C=C/C1=C(C)CCCC1(C)C | 0.275 µM
14 | OCC(S)CS (centres undefined) | 0.3 µM
